# Laboratory results taken from US4287206A, “Halogen derivatives of 8-hydroxycarboxylic acids; the processes for their preparation and medicaments in which they are present” (priority 1978, dated 1981).
# Where two headings read alike, the source gives them in different places.
# What was measured:
# [1] = Determination of the acute toxicity to mice (BEHRENS and KARBER); conditions: mouse, in vivo
# Method: All the experiments reported below were carried out on male rats having a weight of between 170 and 220 g (Wistar AF strain) and male mice having a weight of between 18 and 23 g (Swiss NMRI strain), unless otherwise stated in the following text.
# Determination of the acute toxicity to mice
# Method used: BEHRENS and KARBER
# [2] = system: mice; experiment: Anti-apomorphine activity in mice (hypothermia caused by apomorphine); format: in vivo
# [3] = system: mice; experiment: Anti-oxotremorine activity in mice (hypothermia induced by oxotremorine); format: in vivo; conditions: oxotremorine 0.5 mg.kg^-1 i.p.
# Method: Anti-oxotremorine activity in mice
# At time 0, the mice receive oxotremorine (0.5 mg.kg^-1) by intraperitoneal administration; after 30 minutes, either distilled water or the medicament according to the invention, obtained in accordance with Example I, is administered to the mice intraperitoneally or orally.
# The mice are then observed and the trembling is rated from 0 to 3 as a function of its intensity, every 10 minutes for 30 minutes. Moreover, the existence of peripheral symptoms (tears, hypersialosis and defections) is observed for 2 hours, in the presence or absence of trembling. The rectal temperature is measured every 30 minutes for 2 hours, after administration of oxotremorine.
# [4] = system: mice; experiment: Sleep induced by pentobarbital in mice; format: in vivo; conditions: pentobarbital 50 mg.kg^-1 i.p.
# Method: (b) Absence of modification of the effects of pentobarbital
# At time 0, the mice receive, by intraperitoneal or oral administration, distilled water or the medicament according to the invention, obtained in accordance with Example I. After 30 minutes, they receive pentobarbital (50 mg.kg^-1) by intraperitoneal administration.
compound,measurement,setting,value
"CC1CC(c2ccc(Cl)cc2)C(c2ccccc2)C(=O)O1 (stereo not drawn) [Example I, trans-4-(4'-chlorophenyl)-6-methyl-3-phenyl-3,4,5,6-tetrahydropyrone-2]",LD50,"[1]; ip, intraperitoneal, read-out: LD50 (intraperitoneal administration)",520 mg/kg
same,LD50,"[1]; oral, read-out: LD50 (oral administration)",1050 mg/kg
same,"Rectal temperatures, results in % inhibition of the hypothermia","[2]; 0.5 mg/kg intraperitoneal, apomorphine 1 mg.kg^-1 subcutaneously",7%
same,"Rectal temperatures, results in % inhibition of the hypothermia","[2]; 0.5 mg/kg intraperitoneal, apomorphine 16 mg.kg^-1 subcutaneously",-5%
same,"Rectal temperatures, results in % inhibition of the hypothermia","[2]; 2 mg/kg intraperitoneal, apomorphine 1 mg.kg^-1 subcutaneously",3%
same,"Rectal temperatures, results in % inhibition of the hypothermia","[2]; 2 mg/kg intraperitoneal, apomorphine 16 mg.kg^-1 subcutaneously",45%
same,"Rectal temperatures, results in % inhibition of the hypothermia","[2]; 4 mg/kg intraperitoneal, apomorphine 1 mg.kg^-1 subcutaneously",-13%
same,"Rectal temperatures, results in % inhibition of the hypothermia","[2]; 4 mg/kg intraperitoneal, apomorphine 16 mg.kg^-1 subcutaneously",39%
same,"Rectal temperatures, results in % inhibition of the hypothermia","[2]; 4 mg/kg oral, apomorphine 1 mg.kg^-1 subcutaneously",0%
same,"Rectal temperatures, results in % inhibition of the hypothermia","[2]; 4 mg/kg oral, apomorphine 16 mg.kg^-1 subcutaneously",31%
same,"Rectal temperatures, results in % inhibition of the hypothermia","[2]; 8 mg/kg oral, apomorphine 1 mg.kg^-1 subcutaneously",-2%
same,"Rectal temperatures, results in % inhibition of the hypothermia","[2]; 8 mg/kg oral, apomorphine 16 mg.kg^-1 subcutaneously",40%
same,"Rectal temperatures, results in % inhibition of the hypothermia","[2]; 16 mg/kg intraperitoneal, apomorphine 1 mg.kg^-1 subcutaneously",10%
same,"Rectal temperatures, results in % inhibition of the hypothermia","[2]; 16 mg/kg intraperitoneal, apomorphine 16 mg.kg^-1 subcutaneously",51%
same,"Rectal temperatures, results in % inhibition of the hypothermia","[2]; 16 mg/kg oral, apomorphine 1 mg.kg^-1 subcutaneously",0.5%
same,"Rectal temperatures, results in % inhibition of the hypothermia","[2]; 16 mg/kg oral, apomorphine 16 mg.kg^-1 subcutaneously",42%
same,"Rectal temperatures, results in % inhibition of the hypothermia","[2]; 32 mg/kg oral, apomorphine 1 mg.kg^-1 subcutaneously",45%
same,"Rectal temperatures, results in % inhibition of the hypothermia","[2]; 32 mg/kg oral, apomorphine 16 mg.kg^-1 subcutaneously",77%
same,"Rectal temperatures, results in % inhibition of the hypothermia","[2]; 64 mg/kg oral, apomorphine 1 mg.kg^-1 subcutaneously",51%
same,"Rectal temperatures, results in % inhibition of the hypothermia","[2]; 64 mg/kg oral, apomorphine 16 mg.kg^-1 subcutaneously",86%
same,"Rectal temperatures, results in % inhibition of the hypothermia","[2]; 128 mg/kg oral, apomorphine 1 mg.kg^-1 subcutaneously",68%
same,"Rectal temperatures, results in % inhibition of the hypothermia","[2]; 128 mg/kg oral, apomorphine 16 mg.kg^-1 subcutaneously",81%
same,"Rectal temperatures, results in % inhibition of the hypothermia","[2]; 256 mg/kg oral, apomorphine 1 mg.kg^-1 subcutaneously",89%
same,"Rectal temperatures, results in % inhibition of the hypothermia","[2]; 256 mg/kg oral, apomorphine 16 mg.kg^-1 subcutaneously",116%
same,Rectal temperatures °C.,"[3]; 1 mg/kg oral, 30 min",29.8 ± 0.40 °C
same,Rectal temperatures °C.,"[3]; 1 mg/kg oral, 60 min",27.8 ± 0.65 °C
same,Rectal temperatures °C.,"[3]; 1 mg/kg oral, 90 min",27.8 ± 1.36 °C
same,Rectal temperatures °C.,"[3]; 1 mg/kg oral, 120 min",28.0 ± 1.65 °C
same,Rectal temperatures °C.,"[3]; 2 mg/kg intraperitoneal, 30 min",30.8 ± 0.43 °C
same,Rectal temperatures °C.,"[3]; 2 mg/kg intraperitoneal, 60 min",29.1 ± 0.46 °C
same,Rectal temperatures °C.,"[3]; 2 mg/kg intraperitoneal, 90 min",29.4 ± 0.52 °C
same,Rectal temperatures °C.,"[3]; 2 mg/kg intraperitoneal, 120 min",29.9 ± 0.77 °C
same,Rectal temperatures °C.,"[3]; 2 mg/kg oral, 30 min",31.5 ± 0.43 °C
same,Rectal temperatures °C.,"[3]; 2 mg/kg oral, 60 min",31.0 ± 0.71 °C
same,Rectal temperatures °C.,"[3]; 2 mg/kg oral, 90 min",31.2 ± 0.86 °C
same,Rectal temperatures °C.,"[3]; 2 mg/kg oral, 120 min",31.9 ± 1.14 °C
same,Rectal temperatures °C.,"[3]; 4 mg/kg intraperitoneal, 30 min",30.2 ± 0.36 °C
same,Rectal temperatures °C.,"[3]; 4 mg/kg intraperitoneal, 60 min",31.8 ± 0.42 °C
same,Rectal temperatures °C.,"[3]; 4 mg/kg intraperitoneal, 90 min",33.5 ± 0.49 °C
same,Rectal temperatures °C.,"[3]; 4 mg/kg intraperitoneal, 120 min",35.7 ± 0.40 °C
same,Rectal temperatures °C.,"[3]; 4 mg/kg oral, 30 min",31.8 ± 0.38 °C
same,Rectal temperatures °C.,"[3]; 4 mg/kg oral, 60 min",31.0 ± 0.34 °C
same,Rectal temperatures °C.,"[3]; 4 mg/kg oral, 90 min",31.6 ± 0.91 °C
same,Rectal temperatures °C.,"[3]; 4 mg/kg oral, 120 min",32.4 ± 0.89 °C
same,Rectal temperatures °C.,"[3]; 8 mg/kg intraperitoneal, 30 min",32.1 ± 0.52 °C
same,Rectal temperatures °C.,"[3]; 8 mg/kg intraperitoneal, 60 min",31.3 ± 0.52 °C
same,Rectal temperatures °C.,"[3]; 8 mg/kg intraperitoneal, 90 min",32.2 ± 0.61 °C
same,Rectal temperatures °C.,"[3]; 8 mg/kg intraperitoneal, 120 min",33.8 ± 0.91 °C
same,Rectal temperatures °C.,"[3]; 8 mg/kg oral, 30 min",32.6 ± 0.32 °C
same,Rectal temperatures °C.,"[3]; 8 mg/kg oral, 60 min",32.4 ± 0.29 °C
same,Rectal temperatures °C.,"[3]; 8 mg/kg oral, 90 min",32.9 ± 0.38 °C
same,Rectal temperatures °C.,"[3]; 8 mg/kg oral, 120 min",33.8 ± 0.56 °C
same,Rectal temperatures °C.,"[3]; 16 mg/kg intraperitoneal, 30 min",32.9 ± 0.46 °C
same,Rectal temperatures °C.,"[3]; 16 mg/kg intraperitoneal, 60 min",32.0 ± 0.65 °C
same,Rectal temperatures °C.,"[3]; 16 mg/kg intraperitoneal, 90 min",32.8 ± 0.60 °C
same,Rectal temperatures °C.,"[3]; 16 mg/kg intraperitoneal, 120 min",35.9 ± 0.81 °C
same,Rectal temperatures °C.,"[3]; 16 mg/kg oral, 30 min",31.9 ± 0.53 °C
same,Rectal temperatures °C.,"[3]; 16 mg/kg oral, 60 min",31.9 ± 0.49 °C
same,Rectal temperatures °C.,"[3]; 16 mg/kg oral, 90 min",32.8 ± 0.70 °C
same,Rectal temperatures °C.,"[3]; 16 mg/kg oral, 120 min",33.6 ± 0.97 °C
same,Rectal temperatures °C.,"[3]; 32 mg/kg intraperitoneal, 30 min",32.0 ± 0.70 °C
same,Rectal temperatures °C.,"[3]; 32 mg/kg intraperitoneal, 60 min",31.2 ± 0.73 °C
same,Rectal temperatures °C.,"[3]; 32 mg/kg intraperitoneal, 90 min",32.2 ± 0.85 °C
same,Rectal temperatures °C.,"[3]; 32 mg/kg intraperitoneal, 120 min",33.2 ± 1.2 °C
same,Rectal temperatures °C.,"[3]; 32 mg/kg oral, 30 min",33.0 ± 0.60 °C
same,Rectal temperatures °C.,"[3]; 32 mg/kg oral, 60 min",32.7 ± 0.63 °C
same,Rectal temperatures °C.,"[3]; 32 mg/kg oral, 90 min",32.8 ± 0.62 °C
same,Rectal temperatures °C.,"[3]; 32 mg/kg oral, 120 min",33.7 ± 0.95 °C
same,Rectal temperatures °C.,"[3]; 64 mg/kg intraperitoneal, 30 min",34.0 ± 0.87 °C
same,Rectal temperatures °C.,"[3]; 64 mg/kg intraperitoneal, 60 min",33.0 ± 1.2 °C
same,Rectal temperatures °C.,"[3]; 64 mg/kg intraperitoneal, 90 min",33.7 ± 1.15 °C
same,Rectal temperatures °C.,"[3]; 64 mg/kg intraperitoneal, 120 min",34.5 ± 1.0 °C
same,Rectal temperatures °C.,"[3]; 64 mg/kg oral, 30 min",32.2 ± 0.32 °C
same,Rectal temperatures °C.,"[3]; 64 mg/kg oral, 60 min",31.7 ± 0.52 °C
same,Rectal temperatures °C.,"[3]; 64 mg/kg oral, 90 min",32.8 ± 0.73 °C
same,Rectal temperatures °C.,"[3]; 64 mg/kg oral, 120 min",34.1 ± 0.62 °C
same,Rectal temperatures °C.,"[3]; 128 mg/kg oral, 30 min",34.8 ± 0.80 °C
same,Rectal temperatures °C.,"[3]; 128 mg/kg oral, 60 min",34.9 ± 0.59 °C
same,Rectal temperatures °C.,"[3]; 128 mg/kg oral, 90 min",36.2 ± 0.82 °C
same,Rectal temperatures °C.,"[3]; 128 mg/kg oral, 120 min",37.1 ± 0.77 °C
same,Rectal temperatures °C.,"[3]; 256 mg/kg oral, 30 min",32.4 ± 0.63 °C
same,Rectal temperatures °C.,"[3]; 256 mg/kg oral, 60 min",31.3 ± 0.73 °C
same,Rectal temperatures °C.,"[3]; 256 mg/kg oral, 90 min",32.4 ± 1.07 °C
same,Rectal temperatures °C.,"[3]; 256 mg/kg oral, 120 min",33.9 ± 1.30 °C
same,% of mice which have slept,[4]; 2 mg/kg intraperitoneal,100%
same,Time in minutes for induction of sleep,[4]; 2 mg/kg intraperitoneal,4 min
same,Time in minutes of sleep,[4]; 2 mg/kg intraperitoneal,47 ± 7 min
same,% of mice which have slept,[4]; 2 mg/kg oral,100%
same,Time in minutes for induction of sleep,[4]; 2 mg/kg oral,4 min
same,Time in minutes of sleep,[4]; 2 mg/kg oral,60 ± 8 min
same,% of mice which have slept,[4]; 4 mg/kg intraperitoneal,100%
same,Time in minutes for induction of sleep,[4]; 4 mg/kg intraperitoneal,4 min
same,Time in minutes of sleep,[4]; 4 mg/kg intraperitoneal,55 ± 8 min
same,% of mice which have slept,[4]; 4 mg/kg oral,100%
same,Time in minutes for induction of sleep,[4]; 4 mg/kg oral,4 min
same,Time in minutes of sleep,[4]; 4 mg/kg oral,45 ± 4 min
same,% of mice which have slept,[4]; 8 mg/kg intraperitoneal,100%
same,Time in minutes for induction of sleep,[4]; 8 mg/kg intraperitoneal,4 min
same,Time in minutes of sleep,[4]; 8 mg/kg intraperitoneal,36 ± 3 min
same,% of mice which have slept,[4]; 8 mg/kg oral,100%
same,Time in minutes for induction of sleep,[4]; 8 mg/kg oral,4 min
same,Time in minutes of sleep,[4]; 8 mg/kg oral,57 ± 10 min
same,% of mice which have slept,[4]; 16 mg/kg intraperitoneal,83%
same,Time in minutes for induction of sleep,[4]; 16 mg/kg intraperitoneal,4.5 min
same,Time in minutes of sleep,[4]; 16 mg/kg intraperitoneal,26 ± 7 min
same,% of mice which have slept,[4]; 16 mg/kg oral,100%
same,Time in minutes for induction of sleep,[4]; 16 mg/kg oral,4 min
same,Time in minutes of sleep,[4]; 16 mg/kg oral,41 ± 7 min
same,% of mice which have slept,[4]; 32 mg/kg intraperitoneal,92%
same,Time in minutes for induction of sleep,[4]; 32 mg/kg intraperitoneal,4.5 min
same,Time in minutes of sleep,[4]; 32 mg/kg intraperitoneal,27 ± 3 min
same,% of mice which have slept,[4]; 32 mg/kg oral,100%
same,Time in minutes for induction of sleep,[4]; 32 mg/kg oral,4 min
same,Time in minutes of sleep,[4]; 32 mg/kg oral,49 ± 4 min
same,% of mice which have slept,[4]; 64 mg/kg intraperitoneal,100%
same,Time in minutes for induction of sleep,[4]; 64 mg/kg intraperitoneal,4 min
same,Time in minutes of sleep,[4]; 64 mg/kg intraperitoneal,30 ± 9 min
same,% of mice which have slept,[4]; 64 mg/kg oral,100%
same,Time in minutes for induction of sleep,[4]; 64 mg/kg oral,5 min
same,Time in minutes of sleep,[4]; 64 mg/kg oral,29 ± 8 min
same,% of mice which have slept,[4]; 128 mg/kg intraperitoneal,83%
same,Time in minutes for induction of sleep,[4]; 128 mg/kg intraperitoneal,6 min
same,Time in minutes of sleep,[4]; 128 mg/kg intraperitoneal,25 ± 5 min
same,% of mice which have slept,[4]; 128 mg/kg oral,100%
same,Time in minutes for induction of sleep,[4]; 128 mg/kg oral,4 min
same,Time in minutes of sleep,[4]; 128 mg/kg oral,38 ± 7 min
